Experimental findings from ChEMBL document CHEMBL1817550, “Synthesis and biological evaluation of some novel cyclic-imides as hypoglycaemic, anti-hyperlipidemic agents” (Eur J Med Chem, 2011) are described below.

The test system of data set [1] is Rattus norvegicus. In words: Antihyperlipidemic activity in high-cholesterol diet-induced hypercholesterolemia Swiss albino rat model assessed as reduction in serum cholesterol level at 160 mg/kg/day, po administered via gavage simultaneously with diet cocktail for 14 days by UV-spectrophotometry relative to untreated control. The class given is functional, organism-based.

The nature of data set [2]: Toxicity in intra-gastrically dosed healthy rat administered as single dose. Format: organism-based. Conditions: in vivo, po.
Data set [3] deals with Rattus norvegicus. In words: Toxicity in healthy rat assessed as incidence of less responsive state at 2000 to 7000 mg/kg, po measured after 2 to 6 hrs. Conditions: in vivo. Set-up: route oral. Format: organism-based.
For data set [4], the system named is Rattus norvegicus. Kind of data set: Toxicity in healthy rat at 2000 to 7000 mg/kg, po measured after 24 hrs. The class given is organism-based. Set-up: dose 2000-7000 mg/kg, route oral. As to conditions: in vivo.
Data set [5] concerns Rattus norvegicus. Kind of data set: Hypoglycemic activity in streptozotocin-induced diabetic rat model assessed as decrease in serum glucose level at 10 mg/kg/day, po dosed via gavage for 14 days administered 3 days after streptozotocin challenge by UV-spectrophotometry. The class given is functional.
The subject of data set [6] is Rattus norvegicus. In words: Antihyperlipidemic activity in high-cholesterol diet-induced hypercholesterolemia Swiss albino rat model assessed as reduction in serum cholesterol level at 10 mg/kg/day, po administered via gavage simultaneously with diet cocktail for 14 days by UV-spectrophotometry relative to untreated control. As to conditions: 336 h. Format: functional.

Data set [7] deals with Rattus norvegicus. Kind of data set: Antihyperlipidemic activity in streptozotocin-induced diabetic rat model assessed as serum cholesterol level at 10 mg/kg/day, po dosed via gavage for 14 days administered 3 days after streptozotocin challenge by UV-spectrophotometry. Format: functional.
Data set [8] has as its system Rattus norvegicus. In words: Antihyperlipidemic activity in streptozotocin-induced diabetic rat model assessed as serum triglyceride level at 10 mg/kg/day, po dosed via gavage for 14 days administered 3 days after streptozotocin challenge by UV-spectrophotometry. The class given is functional.
Data set [9] deals with Rattus norvegicus. In words: Toxicity in healthy rat assessed as incidence of mortality at 2000 to 7000 mg/kg, po measured after 24 hrs. Format: organism-based. Also noted: dose 2000-7000 mg/kg, route oral. As to conditions: in vivo.

Activity calls are given as the source filed them. The calls are words filed in the database; no cut-off is given here.

Take `O=C1c2cc(Cl)c(Cl)cc2C(=O)N1CCc1ccccn1`: the result in [1] was Active. In addition, the median lethal dose (LD50) in [2] came out at 5260 mg/kg. The Activity result was “Toxic” in data set [3]; “Non-toxic” in [4]; 92.33 mg/dL in [7]; 71.6 mg/dL in data set [8]; “Non-toxic” in [9]. The inhibition in vivo at 10 mg/kg/day in data set [5] came out at 55%; in data set [6], 56%.
`O=C1c2cc(Cl)c(Cl)cc2C(=O)N1CCN1CCOCC1`: the inhibition in vivo at 10 mg/kg/day in data set [5] was 30%; in data set [6], 42%. Besides, the Activity in data set [7] amounted to 88.66 mg/dL; in data set [8], 97.66 mg/dL.
Taken in the same sequence, the figures for `O=C1[C@@H]2[C@H](C(=O)N1c1ccccn1)C1(Cl)C(Cl)=C(Cl)C2(Cl)C1(Cl)Cl` were 25%, 33%, 129.6 mg/dL and 94.33 mg/dL.
Taken in the same sequence, the figures for `O=C1[C@@H]2[C@H](C(=O)N1CCc1ccccn1)C1(Cl)C(Cl)=C(Cl)C2(Cl)C1(Cl)Cl` were 7%, 53%, 89.75 mg/dL and 71 mg/dL.
Taken in the same sequence, the figures for `O=C1c2cc(Cl)c(Cl)cc2C(=O)N1c1ccccn1` were 3%, 17%, 126.2 mg/dL and 90.5 mg/dL.
On to `O=C1c2cc(Cl)c(Cl)cc2C(=O)N1Cc1ccccn1`, for which the inhibition in vivo at 10 mg/kg/day in data set [6] amounted to 11%. Besides, the Activity in data set [7] turned out to be 155.3 mg/dL; in [8] it was 93 mg/dL.
Turning to `O=C1c2c(Br)c(Br)c(Br)c(Br)c2C(=O)N1CCN1CCOCC1`, the figures for the inhibition in vivo at 10 mg/kg/day in [5] and in data set [6] were 20% and 7%, respectively. Besides, the Activity was determined as 161.3 mg/dL in data set [7] and 80 mg/dL in [8].
`O=C1[C@@H]2[C@H](C(=O)N1Cc1ccccn1)C1(Cl)C(Cl)=C(Cl)C2(Cl)C1(Cl)Cl`: in data set [6], the inhibition in vivo at 10 mg/kg/day was 4%. In addition, the Activity was 149.3 mg/dL in data set [7] and 123 mg/dL in data set [8].
Taken in the same sequence, the figures for `O=C1[C@@H]2[C@H](C(=O)N1CCN1CCOCC1)C1(Cl)C(Cl)=C(Cl)C2(Cl)C1(Cl)Cl` were 7%, 152.3 mg/dL and 91.33 mg/dL.
As to `O=C1[C@@H]2[C@H](C(=O)N1c1ccncc1)C1(Cl)C(Cl)=C(Cl)C2(Cl)C1(Cl)Cl`, the figures for the inhibition in vivo at 10 mg/kg/day in data set [5] and in data set [6] were 27% and 41%, respectively. Also, the Activity in data set [7] came to 169.3 mg/dL; in data set [8], 77 mg/dL.
`O=C1c2c(Cl)c(Cl)c(Cl)c(Cl)c2C(=O)N1CCc1ccccn1`: in [6], the inhibition in vivo at 10 mg/kg/day worked out at 48%. For the same compound, the Activity was determined as 107.2 mg/dL in data set [7] and 80 mg/dL in [8].
Turning to `O=C1[C@@H]2[C@H](C(=O)N1c1ncccn1)C1(Cl)C(Cl)=C(Cl)C2(Cl)C1(Cl)Cl`, the inhibition in vivo at 10 mg/kg/day in [6] was determined as 44%. For the same compound, the Activity in [7] stood at 162.3 mg/dL; in [8] it was 89.33 mg/dL.
Taken in the same sequence, the figures for `O=C1c2c(Cl)c(Cl)c(Cl)c(Cl)c2C(=O)N1c1ccccn1` were 9%, 140.3 mg/dL and 120 mg/dL.
With `O=C1c2c(Br)c(Br)c(Br)c(Br)c2C(=O)N1c1ncccn1`, the inhibition in vivo at 10 mg/kg/day in [5] was 28%; in [6] it was 19%. The Activity in data set [7] was determined as 196 mg/dL; in data set [8], 110.6 mg/dL.
For the compound `O=C1c2cc(Cl)c(Cl)cc2C(=O)N1c1ncccn1`, in data set [1], the outcome was Active. Further, the LD50 in data set [2] was 4240 mg/kg. Also, the Activity result in [3] was “Toxic”; in data set [4] it was “Non-toxic”; in data set [7], 96 mg/dL; in data set [8], 70.66 mg/dL; in [9], “Non-toxic”. In addition, the inhibition in vivo at 10 mg/kg/day in data set [5] turned out to be 32%; in data set [6], 58%.
Consider `O=C1c2cc(Cl)c(Cl)cc2C(=O)N1c1ccncc1`, for which the inhibition in vivo at 10 mg/kg/day in data set [6] stood at 19%. The Activity in data set [7] stood at 146 mg/dL; in [8], 112 mg/dL.
Turning to `O=C1c2c(Br)c(Br)c(Br)c(Br)c2C(=O)N1Cc1ccccn1`, in [1], the outcome was Active. This compound showed a 50% lethal dose (LD50) in data set [2] of 5010 mg/kg. Moreover, the Activity entry was “Toxic” in data set [3]; “Non-toxic” in data set [4]; 92.33 mg/dL in data set [7]; 82.66 mg/dL in data set [8]; “Non-toxic” in data set [9]. Moreover, the values for the inhibition in vivo at 10 mg/kg/day in data set [5] and in data set [6] were 35% and 54%, respectively.
As for `O=C1c2c(Cl)c(Cl)c(Cl)c(Cl)c2C(=O)N1CCN1CCOCC1`, the results for the inhibition in vivo at 10 mg/kg/day in [5] and in data set [6] were 10% and 46%, respectively. For the same compound, the Activity in data set [7] was found to be 105.7 mg/dL; in data set [8], 100.3 mg/dL.
Taken in the same sequence, the figures for `O=C1c2c(Br)c(Br)c(Br)c(Br)c2C(=O)N1CCc1ccccn1` were 18%, 20%, 164.6 mg/dL and 91.33 mg/dL.
Turning to `O=C1c2c(Br)c(Br)c(Br)c(Br)c2C(=O)N1c1ccccn1`, in [6], the inhibition in vivo at 10 mg/kg/day amounted to 21%. Besides, the Activity in data set [7] is 150.3 mg/dL; in data set [8], 100.3 mg/dL.
Turning to `O=C1c2c(Cl)c(Cl)c(Cl)c(Cl)c2C(=O)N1c1ccncc1`, the inhibition in vivo at 10 mg/kg/day in data set [5] was determined as 3%; in data set [6], 44%. Besides, the Activity worked out at 129.5 mg/dL in data set [7] and 110.6 mg/dL in [8].
Take `O=C1c2c(Br)c(Br)c(Br)c(Br)c2C(=O)N1c1ccncc1`: the inhibition in vivo at 10 mg/kg/day in data set [6] was found to be 13%. Moreover, the Activity in [7] stood at 171 mg/dL; in [8], 120 mg/dL.
`O=C1c2c(Cl)c(Cl)c(Cl)c(Cl)c2C(=O)N1c1ncccn1`: the inhibition in vivo at 10 mg/kg/day was determined as 5% in data set [5] and 3% in data set [6]. Moreover, the results for the Activity in data set [7] and in [8] were 117 mg/dL and 123 mg/dL, respectively.
Taken in the same sequence, the figures for `O=C1c2c(Cl)c(Cl)c(Cl)c(Cl)c2C(=O)N1Cc1ccccn1` were 23%, 47%, 105 mg/dL and 82.66 mg/dL.
Taken in the same sequence, the figures for `COc1ccc(Cl)cc1C(=O)NCCc1ccc(S(=O)(=O)NC(=O)NC2CCCCC2)cc1` [GLYBURIDE] were 52%, 11%, 102.6 mg/dL and 87.6 mg/dL.
